Measured values reported in patent publication US20240325375A1, “Effect of YEL002 on Psychological and Psychiatric Factors in Health and Disease” (RadMit, Inc., priority 2023, published 2024).

Test system: lymphoma
Test: Lymphoma incidence in mice (National Institute of Health experiment)
Assay type: in vivo
Settings: reduced from 10-20%
Protocol: In another experiment at the National Institute of Health, in other mice after radiation exposure which caused 90% of them to develop lymphoma, there was a reduction of the lymphoma incidence to 40% and the spontaneous frequency was reduced from 10-20% down to 0%. […] This was observed after treating mice right after birth, if humans are treated later in life it is possible that only 10 or 5 years are added and probably more for DNA repair deficient diseases like ataxia telangiectasia (ATM) which is still very substantial, especially, since it treats and reduces the likelihood of many diseases.

SMILES: COc1ccc2cc(-c3nc4ccc(C)cn4c3NCc3ccco3)c(=O)[nH]c2c1 [YEL002]
- spontaneous lymphoma frequency: 0%
